Data taken from ChEMBL document CHEMBL1201862, “PubChem BioAssay data set” (2004).
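Five concentrations, 48 hours, 96-well plates. At the GI50, growth is halved.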 Calls of active or inactive are those of the source. No stated cut-off is given here; in the data, active = GI50 up to about 1.1 µM and inactive = higher.

Experiments:
Assay in all cases: NCI anticancer screen, dose series, 48 h
[1] = tested on: SR
[2] = tested on: A549
[3] = tested on: HOP-92
[4] = tested on: MDA-MB-435
[5] = tested on: K562
[6] = tested on: TK-10
[7] = tested on: OVCAR-3
[8] = tested on: 786-0
[9] = tested on: COLO 205
[10] = tested on: HCC 2998
[11] = tested on: OVCAR-5
[12] = tested on: UO-31
[13] = tested on: RPMI-8226
[14] = tested on: SF-295
[15] = tested on: SK-OV-3
[16] = tested on: NCI-H23
[17] = tested on: A498
[18] = tested on: LOX IMVI
[19] = tested on: SN12C
[20] = tested on: CCRF-CEM

| SMILES | GI50 [1] | GI50 [2] | GI50 [3] | GI50 [4] | GI50 [5] | GI50 [6] | GI50 [7] | GI50 [8] | GI50 [9] | GI50 [10] | GI50 [11] | GI50 [12] | GI50 [13] | GI50 [14] | GI50 [15] | GI50 [16] | GI50 [17] | GI50 [18] | GI50 [19] | GI50 [20] |
| --- | --- | --- | --- | --- | --- | --- | --- | --- | --- | --- | --- | --- | --- | --- | --- | --- | --- | --- | --- | --- |
| C=C1CCCCCCCCC/C=C/1SCCCSC | > 100 µM (inactive) | > 100 µM (inactive) | > 100 µM (inactive) | > 100 µM (inactive) | > 100 µM (inactive) | > 100 µM (inactive) | > 100 µM (inactive) | > 100 µM (inactive) | > 100 µM (inactive) | > 100 µM (inactive) | > 100 µM (inactive) | > 100 µM (inactive) | > 100 µM (inactive) | > 100 µM (inactive) | > 100 µM (inactive) | > 100 µM (inactive) | > 100 µM (inactive) | > 100 µM (inactive) | > 100 µM (inactive) | – |
| CC(C)(C)[C@@H]1NC(=O)CN1C(=O)OCc1ccccc1 | > 100 µM (inactive) | > 100 µM (inactive) | > 100 µM (inactive) | > 100 µM (inactive) | > 100 µM (inactive) | > 100 µM (inactive) | – | > 100 µM (inactive) | > 100 µM (inactive) | > 100 µM (inactive) | > 100 µM (inactive) | > 100 µM (inactive) | > 100 µM (inactive) | > 100 µM (inactive) | > 100 µM (inactive) | > 100 µM (inactive) | > 100 µM (inactive) | > 100 µM (inactive) | > 100 µM (inactive) | > 100 µM (inactive) |
| COc1cc(C2c3cc4c(cc3OC(NNC(N)=S)C2C)OCO4)cc(OC)c1OC (stereo not drawn) | 0.0811 µM (active) | 0.644 µM (active) | 0.152 µM (active) | 0.0425 µM (active) | 0.242 µM (active) | 5.12 µM (inactive) | 0.349 µM (active) | 0.398 µM (active) | 0.277 µM (active) | 0.906 µM (active) | – | 0.931 µM (active) | 0.29 µM (active) | 0.231 µM (active) | 0.53 µM (active) | 0.38 µM (active) | 0.191 µM (active) | 0.412 µM (active) | 1.03 µM (active) | 0.244 µM (active) |
| COc1ccc(/C=C2\C[C@H]3[C@@H]4CCC5=C/C(=N/O)CC[C@]5(C)[C@H]4CC[C@]3(C)\C2=N\O)cc1OC | 6.14 µM (inactive) | 6.98 µM (inactive) | 7.85 µM (inactive) | 18.8 µM (inactive) | 6.92 µM (inactive) | – | 9.1 µM (inactive) | 17.8 µM (inactive) | – | 10.7 µM (inactive) | 41 µM (inactive) | 4.5 µM (inactive) | 4.49 µM (inactive) | 7 µM (inactive) | 39.3 µM (inactive) | 43.4 µM (inactive) | 33.1 µM (inactive) | 18.8 µM (inactive) | 12.7 µM (inactive) | 6.76 µM (inactive) |
| O=[N+]([O-])c1cc(-c2nnc(C34CC5CC(CC(C5)C3)C4)o2)cc([N+](=O)[O-])c1 | > 100 µM (inactive) | 48.1 µM (inactive) | 36.1 µM (inactive) | 19.1 µM (inactive) | 21 µM (inactive) | – | 63.5 µM (inactive) | 34.2 µM (inactive) | 17.9 µM (inactive) | 70.5 µM (inactive) | > 100 µM (inactive) | > 100 µM (inactive) | 82.2 µM (inactive) | > 100 µM (inactive) | > 100 µM (inactive) | > 100 µM (inactive) | 61.7 µM (inactive) | > 100 µM (inactive) | 90.8 µM (inactive) | > 100 µM (inactive) |
| Cn1c2c(c3ccccc3c1=O)C(=O)c1ccccc1-2 | 5.2 µM (inactive) | > 100 µM (inactive) | > 100 µM (inactive) | > 100 µM (inactive) | > 100 µM (inactive) | 21.4 µM (inactive) | 76.4 µM (inactive) | 17.9 µM (inactive) | 20 µM (inactive) | – | > 100 µM (inactive) | 21.9 µM (inactive) | > 100 µM (inactive) | > 100 µM (inactive) | 81.7 µM (inactive) | 30.8 µM (inactive) | 74.1 µM (inactive) | 27.2 µM (inactive) | 80.2 µM (inactive) | > 100 µM (inactive) |
| Fc1ccc(OCc2ccc3nc(-c4ccccc4)c(Cl)nc3c2)cc1 | 16.1 µM (inactive) | 38.6 µM (inactive) | 25.7 µM (inactive) | 91.4 µM (inactive) | – | 31.8 µM (inactive) | 47.6 µM (inactive) | 16.9 µM (inactive) | 37.1 µM (inactive) | 40.5 µM (inactive) | 41.7 µM (inactive) | > 100 µM (inactive) | 96.2 µM (inactive) | 21.4 µM (inactive) | – | 25.3 µM (inactive) | 25.8 µM (inactive) | 88.5 µM (inactive) | 56.6 µM (inactive) | 25.7 µM (inactive) |
| CC(C)=CCOc1cc(NC(=S)c2ccoc2C)ccc1Cl [UC 781] | > 100 µM (inactive) | > 100 µM (inactive) | 8.77 µM (inactive) | > 100 µM (inactive) | – | > 100 µM (inactive) | > 100 µM (inactive) | > 100 µM (inactive) | > 100 µM (inactive) | > 100 µM (inactive) | > 100 µM (inactive) | > 100 µM (inactive) | > 100 µM (inactive) | > 100 µM (inactive) | > 100 µM (inactive) | > 100 µM (inactive) | > 100 µM (inactive) | 14.1 µM (inactive) | 34.7 µM (inactive) | 39.6 µM (inactive) |
| O=C1c2c(ccc3c2CCC3)CC1Cc1ccc2c(c1)CCC2 (stereo not drawn) | 5.27 µM (inactive) | 28.9 µM (inactive) | – | 24 µM (inactive) | 14 µM (inactive) | 29.2 µM (inactive) | 24.4 µM (inactive) | 32.3 µM (inactive) | 20.3 µM (inactive) | 34.3 µM (inactive) | 90.2 µM (inactive) | 56.6 µM (inactive) | 9.91 µM (inactive) | 26.9 µM (inactive) | 53.3 µM (inactive) | 21.6 µM (inactive) | 27.1 µM (inactive) | 25.4 µM (inactive) | 23.4 µM (inactive) | 14.5 µM (inactive) |
| Cn1cnc(N)c(N=O)c1=O | > 10 µM (inactive) | > 10 µM (inactive) | – | > 10 µM (inactive) | > 10 µM (inactive) | > 10 µM (inactive) | > 10 µM (inactive) | > 10 µM (inactive) | > 10 µM (inactive) | > 10 µM (inactive) | > 10 µM (inactive) | – | > 10 µM (inactive) | > 10 µM (inactive) | > 10 µM (inactive) | > 10 µM (inactive) | > 10 µM (inactive) | > 10 µM (inactive) | > 10 µM (inactive) | > 10 µM (inactive) |
| COc1ccc(C(=O)Nc2ccc(O)c(=O)cc2)cc1 | 17.5 µM (inactive) | 43.9 µM (inactive) | – | 43.4 µM (inactive) | 32.4 µM (inactive) | 53 µM (inactive) | 27.6 µM (inactive) | 51.1 µM (inactive) | 24.2 µM (inactive) | 39.9 µM (inactive) | > 100 µM (inactive) | 20.9 µM (inactive) | 26.9 µM (inactive) | 37.8 µM (inactive) | – | 89.7 µM (inactive) | < 0.01 µM (active) | 38.7 µM (inactive) | 36.5 µM (inactive) | 24 µM (inactive) |
| Cc1ccc(S(=O)(=O)NC(=O)OC23COCN2COC3)cc1 | 31.6 µM (inactive) | > 100 µM (inactive) | > 100 µM (inactive) | > 100 µM (inactive) | > 100 µM (inactive) | > 100 µM (inactive) | > 100 µM (inactive) | > 100 µM (inactive) | > 100 µM (inactive) | > 100 µM (inactive) | > 100 µM (inactive) | > 100 µM (inactive) | 29.5 µM (inactive) | > 100 µM (inactive) | > 100 µM (inactive) | > 100 µM (inactive) | > 100 µM (inactive) | > 100 µM (inactive) | > 100 µM (inactive) | – |
| Cc1cc(=O)nc(S(=O)(=O)NC(=S)Nc2ccc(Cl)cc2)[nH]1 | 18.8 µM (inactive) | > 100 µM (inactive) | > 100 µM (inactive) | > 100 µM (inactive) | – | > 100 µM (inactive) | > 100 µM (inactive) | > 100 µM (inactive) | > 100 µM (inactive) | > 100 µM (inactive) | > 100 µM (inactive) | > 100 µM (inactive) | 34.4 µM (inactive) | > 100 µM (inactive) | > 100 µM (inactive) | > 100 µM (inactive) | > 100 µM (inactive) | – | > 100 µM (inactive) | > 100 µM (inactive) |
| Nc1ncnc2c1nc(Cl)n2C1OC2COP(=O)(O)OC2C1O (stereo not drawn) | 3.55 µM (inactive) | 23.3 µM (inactive) | – | 7.82 µM (inactive) | 1.01 µM (active) | 6.49 µM (inactive) | 12.2 µM (inactive) | 5.04 µM (inactive) | 5.55 µM (inactive) | 38.9 µM (inactive) | 23.3 µM (inactive) | 5.87 µM (inactive) | 5.53 µM (inactive) | > 35.4 µM (inactive) | 3.01 µM (inactive) | 7.24 µM (inactive) | 1.69 µM (inactive) | 1.19 µM (inactive) | 12 µM (inactive) | 1.29 µM (inactive) |
| C=CCc1cccc2cc(C(=O)Nc3ccc(C)cc3)c(=N)oc12 | > 100 µM (inactive) | > 100 µM (inactive) | > 100 µM (inactive) | > 100 µM (inactive) | > 100 µM (inactive) | – | > 100 µM (inactive) | > 100 µM (inactive) | > 100 µM (inactive) | > 100 µM (inactive) | > 100 µM (inactive) | – | > 100 µM (inactive) | – | > 100 µM (inactive) | > 100 µM (inactive) | > 100 µM (inactive) | > 100 µM (inactive) | > 100 µM (inactive) | > 100 µM (inactive) |
